{"source": "the RepoRT retention time repository", "data": [{"assay": "Agilent ZORBAX 300 SB-C18, 150 × 1 mm, 3.5 µm; A: water + 0.01% heptafluorobutyric acid; B: acetonitrile + 0.01% heptafluorobutyric acid; gradient (min/%B) 0/0 100/90", "conditions": "stereoisomer not certain", "units": {"LC retention time": "min"}, "values": [{"smiles": "O=C(c1ccccc1O)N1CCCC1", "LC retention time": 9.29}, {"smiles": "Cc1nc2c(ccc3[nH]c(C)nc32)[nH]1", "LC retention time": 7.32}, {"smiles": "O=C(C=Cc1ccco1)C1CC1", "LC retention time": 12.1}, {"smiles": "CCCC(=O)Nc1cccc(C(=O)Nc2ccc(C(=O)O)cc2)c1", "LC retention time": 10.5}, {"smiles": "CCNCc1ccccc1", "LC retention time": 7.68}, {"smiles": "CC1C2=C(CC(C)(C)CC2=O)NC2=C1C(=O)CC(C)(C)C2", "LC retention time": 10.9}, {"smiles": "C=CCC1(CC=C)CNCCN1", "LC retention time": 7.33}, {"smiles": "Nc1c(S(=O)(=O)O)ccc2c1C(=O)c1ccccc1C2=O", "LC retention time": 8.56}, {"smiles": "Nc1ccc(C(=O)N2CCC(c3ccccc3)C2)cc1", "note": "(stereo unspecified)", "LC retention time": 11}, {"smiles": "COc1ccc(OC)c(C(=O)C=Cc2ccc(OC)c(OC)c2OC)c1", "LC retention time": 15.2}, {"smiles": "CN1C(=O)C(CCC(N)=O)NC1=S", "note": "(stereo unspecified)", "LC retention time": 6.53}, {"smiles": "CCNCC", "LC retention time": 5.17}, {"smiles": "c1ccc2c(c1)CCN2", "LC retention time": 7.26}, {"smiles": "CC(Nc1ccc2ccccc2c1)C(=O)NN=Cc1c2ccccc2cc2ccccc12", "note": "(stereo unspecified)", "LC retention time": 17.5}, {"smiles": "O=C(NCCc1c[nH]c2ccccc12)c1c[nH]c2ccccc12", "LC retention time": 11.8}, {"smiles": "CC1(C)CC(NC(=S)NC2CCCCC2)CC(C)(C)N1", "LC retention time": 9.89}, {"smiles": "CCNc1ccccc1", "LC retention time": 7.68}, {"smiles": "Nc1ccc2cc3ccc(N)cc3nc2c1", "LC retention time": 9.09}, {"smiles": "O=C(CC1COc2ccccc2O1)N1CCOCC1", "note": "(stereo unspecified)", "LC retention time": 10.5}, {"smiles": "C=CCN1CCC23c4c5ccc(O)c4OC2C(=O)CCC3(O)C1C5", "note": "(stereo unspecified)", "LC retention time": 8.17}, {"smiles": "Cc1cc[n+](CCc2ccccc2)cc1C", "LC retention time": 9.48}, {"smiles": "CCn1c(C)n[nH]c1=S", "LC retention time": 6.98}, {"smiles": "CCN(CC)c1ccc(CCN)cc1", "LC retention time": 8.39}, {"smiles": "c1cncc(-c2nc3ccccc3[nH]2)c1", "LC retention time": 8.19}, {"smiles": "CCCn1cnc2c1c(=O)n(CCCCC(C)=O)c(=O)n2C", "LC retention time": 10.2}, {"smiles": "COCCc1ccc(OCC(O)CNC(C)C)cc1", "note": "(stereo unspecified)", "LC retention time": 9.27}, {"smiles": "Cc1nc(N=C(N)N)nc2c(C)cccc12", "LC retention time": 9.23}, {"smiles": "CC1(C)CC(=O)c2c(-c3ccccc3)nc3ccc4ccccc4c3c2C1", "LC retention time": 17.1}, {"smiles": "O=C(NCCCn1c2ccccc2c2ccccc21)Nc1ccccc1", "LC retention time": 15.8}, {"smiles": "Cc1cc(=O)n(-c2ccc(C(=O)O)cc2)[nH]1", "LC retention time": 8.05}, {"smiles": "COC(=O)c1ccc2ccccc2n1", "LC retention time": 10.4}, {"smiles": "c1ccc(CN2CCCC2)nc1", "LC retention time": 7.01}, {"smiles": "O=C(C=Cc1ccccc1O)c1ccccc1O", "LC retention time": 14.5}, {"smiles": "CCCCCCCCCn1cc[n+](CCCCCCCCC)c1C", "LC retention time": 17.8}, {"smiles": "Cc1nc2ccccc2nc1N=C(N)NC(=O)c1ccccc1", "LC retention time": 11.1}, {"smiles": "O=C(O)CCc1ccc(-c2ccccc2)[nH]1", "LC retention time": 11.9}, {"smiles": "Nc1cc(-c2ccc(C(=O)c3ccccc3)c(N)c2)ccc1C(=O)c1ccccc1", "LC retention time": 16.4}, {"smiles": "Cc1cccc(C=NNC(=O)C[n+]2ccccc2)c1", "LC retention time": 9.09}, {"smiles": "Nc1c2c(nc3ccccc13)N(C1CCCCC1)CC2", "LC retention time": 10.9}, {"smiles": "c1ccc2c(-n3ccnc3)nccc2c1", "LC retention time": 8.37}, {"smiles": "COc1ccc2c3c1OC1C(=O)CCC4C(C2)N(C)CCC314", "note": "(stereo unspecified)", "LC retention time": 8.61}, {"smiles": "Cc1[nH]c2c(C)ccc(C)c2c1CCN", "LC retention time": 9.21}, {"smiles": "Cc1ccc(NC(=O)CCN2CCN(C)CC2)cc1", "LC retention time": 8.34}, {"smiles": "CCN(CC)CCCC(C)N", "note": "(stereo unspecified)", "LC retention time": 7.05}, {"smiles": "C=CC1CN2CCC1CC2C(O)c1ccnc2ccc(OC)cc12", "note": "(stereo unspecified)", "LC retention time": 9.1}, {"smiles": "CCCOC(C)n1cccc1-c1ccccc1", "note": "(stereo unspecified)", "LC retention time": 18}, {"smiles": "O=C(O)C=CC(=O)N1CCc2ccccc21", "LC retention time": 9.97}, {"smiles": "Cc1ccc(C(=O)c2ccc(C)c(N)c2)cc1N", "LC retention time": 10.3}, {"smiles": "CC(=O)C=Cc1ccccc1", "LC retention time": 11.8}, {"smiles": "CC(C)=NNc1nccc2ccccc12", "LC retention time": 10.7}, {"smiles": "S=C(NCc1ccc2[nH]c3c(c2c1)CCCC3)Nc1cccc2ccccc12", "LC retention time": 16}]}]}
